Experimental data as given in ChEMBL document CHEMBL1201862, “PubChem BioAssay data set” (2004).
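Where inhibition never reached the appropriate level, the endpoint shown equals the highest concentration tested. Otherwise, values were interpolated linearly from a five-concentration, 48-hour dose response in 96-well plates. Here, GI50 denotes the concentration required for 50% inhibition of growth.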 Activity calls are given as the source filed them. Cut-off read from the data, not from the text of the source: active = GI50 up to about 1.1 µM and inactive = higher.

What was measured:
Assay in all cases: inhibition of tumour cell growth, NCI panel, 48 h
A498 = tested on: A498
ACHN = tested on: ACHN
CCRF-CEM = tested on: CCRF-CEM
COLO 205 = tested on: COLO 205
HCC 2998 = tested on: HCC 2998
HCT-15 = tested on: HCT-15
HOP-62 = tested on: HOP-62
HOP-92 = tested on: HOP-92
LOX IMVI = tested on: LOX IMVI
M14 = tested on: M14
MDA-MB-231 = tested on: MDA-MB-231
MOLT-4 = tested on: MOLT-4
NCI-H23 = tested on: NCI-H23
NCI-H460 = tested on: NCI-H460
OVCAR-8 = tested on: OVCAR-8
RPMI-8226 = tested on: RPMI-8226
SN12C = tested on: SN12C
SNB-75 = tested on: SNB-75
SW-620 = tested on: SW-620
UO-31 = tested on: UO-31

Row | Structure (SMILES) | GI50 (A498) | GI50 (ACHN) | GI50 (CCRF-CEM) | GI50 (COLO 205) | GI50 (HCC 2998) | GI50 (HCT-15) [µM] | GI50 (HOP-62) | GI50 (HOP-92) | GI50 (LOX IMVI) | GI50 (M14) | GI50 (MDA-MB-231) | GI50 (MOLT-4) | GI50 (NCI-H23) | GI50 (NCI-H460) | GI50 (OVCAR-8) | GI50 (RPMI-8226) | GI50 (SN12C) | GI50 (SNB-75) | GI50 (SW-620) | GI50 (UO-31)
1 | CCN(CC)CC1CCCCN1CC(=O)N1c2ccccc2NC(=O)c2ccccc21 (stereo not given) | > 100 µM (inactive) | > 100 µM (inactive) | > 100 µM (inactive) | > 100 µM (inactive) | > 100 µM (inactive) | > 100 | > 100 µM (inactive) | > 100 µM (inactive) | > 100 µM (inactive) | > 100 µM (inactive) | > 100 µM (inactive) | > 100 µM (inactive) | > 100 µM (inactive) | > 100 µM (inactive) | > 100 µM (inactive) | > 100 µM (inactive) | > 100 µM (inactive) | 13.9 µM (inactive) | > 100 µM (inactive) | 23.9 µM (inactive)
2 | COC(=O)C1=C(O)C(C(=O)OC)[C@]2(O)[C@H](C(=O)OC)[C@H]1C[C@@H](c1ccc(OC)c(OC)c1)[C@H]2C(=O)OC (stereo not given in full) | 18 µM (inactive) | 25.8 µM (inactive) | 0.129 µM (active) | 17.9 µM (inactive) | 11.7 µM (inactive) | 14 | 16.7 µM (inactive) | 21.2 µM (inactive) | 13.4 µM (inactive) | 12.3 µM (inactive) | 34.2 µM (inactive) | 17.5 µM (inactive) | 19.8 µM (inactive) | 14.7 µM (inactive) | 13.3 µM (inactive) | 3.27 µM (inactive) | 28.2 µM (inactive) | 7.8 µM (inactive) | 15.6 µM (inactive) | 24.5 µM (inactive)
3 | O=C(CCCCCCCCC(=O)NN1C(=O)/C(=C\c2ccc(O)c(O)c2)SC1c1ccc(Cl)cc1)NN1C(=O)/C(=C\c2ccc(O)c(O)c2)SC1c1ccc(Cl)cc1 (stereo not given) | 19.8 µM (inactive) | 18.3 µM (inactive) | < 0.01 µM (active) | 24.8 µM (inactive) | 34.2 µM (inactive) | 13.4 | 10.3 µM (inactive) | 11.5 µM (inactive) | 13.6 µM (inactive) | 20.7 µM (inactive) | 35.6 µM (inactive) | 1.82 µM (inactive) | 15.5 µM (inactive) | 30.6 µM (inactive) | 10.7 µM (inactive) | 2.72 µM (inactive) | 41.7 µM (inactive) | 29.9 µM (inactive) | 56.5 µM (inactive) | 5.35 µM (inactive)
4 | CCO[C@@]1(COCc2ccccc2)OC(=O)C[C@@H]1N1C(=O)OC[C@@H]1c1ccccc1 | > 100 µM (inactive) | > 100 µM (inactive) | > 100 µM (inactive) | > 100 µM (inactive) | > 100 µM (inactive) | > 100 | 26.6 µM (inactive) | > 100 µM (inactive) | > 100 µM (inactive) | > 100 µM (inactive) | > 100 µM (inactive) | 58.9 µM (inactive) | > 100 µM (inactive) | > 100 µM (inactive) | > 100 µM (inactive) | > 100 µM (inactive) | > 100 µM (inactive) | > 100 µM (inactive) | > 100 µM (inactive) | > 100 µM (inactive)
5 | O=C1CCc2c(sc3ncnc(Nc4cccc(Br)c4)c23)C1 | 14 µM (inactive) | 1.69 µM (inactive) | 2.08 µM (inactive) | 7.36 µM (inactive) | 4.26 µM (inactive) | 3.24 | 5.53 µM (inactive) | 2.54 µM (inactive) | 3.49 µM (inactive) | 3.42 µM (inactive) | 3.27 µM (inactive) | 3.2 µM (inactive) | 3.01 µM (inactive) | 3.99 µM (inactive) | 3.26 µM (inactive) | 2.58 µM (inactive) | 3.4 µM (inactive) | 3.7 µM (inactive) | 3.62 µM (inactive) | 1.99 µM (inactive)
6 | c1ccc(C/C(=N\Nc2nc3ccccc3[nH]2)c2ccccn2)cc1 | 0.217 µM (active) | 0.0131 µM (active) | < 0.01 µM (active) | < 0.01 µM (active) | 13.1 µM (inactive) | < 0.01 | < 0.0232 µM (active) | 0.0206 µM (active) | 0.119 µM (active) | < 0.0288 µM (active) | 0.0396 µM (active) | < 0.01 µM (active) | 0.019 µM (active) | 0.126 µM (active) | 0.0235 µM (active) | < 0.01 µM (active) | 0.0295 µM (active) | 0.403 µM (active) | < 0.01 µM (active) | 0.0261 µM (active)
7 | COC1=CC(=O)C[C@@H](C)[C@]12Oc1c(Cl)c(OC)cc(OC)c1C2=O [GRISEOFULVIN] | > 47.2 µM (inactive) | 67.3 µM (inactive) | 33.3 µM (inactive) | 9.89 µM (inactive) | 17.2 µM (inactive) | 22.8 | 49.9 µM (inactive) | > 34.3 µM (inactive) | 18.7 µM (inactive) | 9.48 µM (inactive) | 6.41 µM (inactive) | 39.9 µM (inactive) | 42.1 µM (inactive) | 28 µM (inactive) | 30.1 µM (inactive) | 19.4 µM (inactive) | 40.5 µM (inactive) | 4.5 µM (inactive) | 7.62 µM (inactive) | 43.7 µM (inactive)
